Assay results from PubChem BioAssay (NCI).
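Tested at 5 concentrations; 48 h exposure; 96-well plates; endpoints linearly interpolated, else capped at highest concentration. GI50 is the concentration that inhibits growth by half. TGI marks complete inhibition of growth.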

Columns and labels:
Assay in all cases: growth of human tumour cells (NCI), 48 h
SF-295 CNS = tested on: SF-295 CNS
HCT-15 colon = tested on: HCT-15 colon
ACHN renal = tested on: ACHN renal
786-0 renal = tested on: 786-0 renal
M14 melanoma = tested on: M14 melanoma
SK-MEL-5 melanoma = tested on: SK-MEL-5 melanoma
HS 578T breast = tested on: HS 578T breast
CCRF-CEM leukemia = tested on: CCRF-CEM leukemia
OVCAR-3 ovarian = tested on: OVCAR-3 ovarian
SN12C renal = tested on: SN12C renal

Row | SMILES | GI50 (SF-295 CNS) | TGI (SF-295 CNS) | GI50 (HCT-15 colon) | TGI (HCT-15 colon) | GI50 (ACHN renal) | TGI (ACHN renal) | GI50 (786-0 renal) | TGI (786-0 renal) | GI50 (M14 melanoma) | TGI (M14 melanoma) | GI50 (SK-MEL-5 melanoma) | TGI (SK-MEL-5 melanoma) | GI50 (HS 578T breast) | TGI (HS 578T breast) | GI50 (CCRF-CEM leukemia) | TGI (CCRF-CEM leukemia) | GI50 (OVCAR-3 ovarian) | TGI (OVCAR-3 ovarian) | TGI (SN12C renal) | GI50 (SN12C renal)
1 | O=C1C2C(C(=O)N1CC[Se][Se]CCN1C(=O)C3C(C1=O)[C@H]1C=C[C@@H]3C1)[C@H]1C=C[C@@H]2C1 (some centres undefined) | 1.11 µM | 2.42 µM | 0.441 µM | 2.33 µM | 0.408 µM | 2.21 µM | 0.369 µM | 1.29 µM | 0.332 µM | 1.97 µM | 1.67 µM | 3.7 µM | 0.266 µM | 1.16 µM | 0.566 µM | 4.02 µM | 0.852 µM | 2.94 µM | – | –
2 | Cc1c(C)c2ccc(OC(C)C(=O)O)cc2oc1=O (centres undefined) | – | > 100 µM | – | – | – | > 100 µM | – | > 100 µM | – | > 100 µM | – | > 100 µM | – | – | – | > 100 µM | – | > 100 µM | > 100 µM | –
3 | C=C(C)[C@@H]1CC[C@]2(C(=O)n3ccnc3)CC[C@]3(C)[C@H](CC[C@@H]4[C@@]5(C)CCCNC(C)(C)[C@@H]5CC[C@]43C)[C@@H]12 | 1.69 µM | 3.24 µM | 1.26 µM | 2.64 µM | – | – | 1.45 µM | 2.96 µM | 1.6 µM | 3.1 µM | 1.56 µM | 2.9 µM | 2.08 µM | 5.08 µM | 1.88 µM | 4.48 µM | 1.67 µM | 3.14 µM | 3.24 µM | 1.7 µM
4 | NNC(=O)N/N=C1\CNC(=O)C(=O)C1c1nc2ccccc2s1 (centres undefined) | – | > 100 µM | – | > 100 µM | – | > 100 µM | – | > 100 µM | – | > 100 µM | – | > 100 µM | – | – | – | > 100 µM | – | > 100 µM | > 100 µM | –
5 | Nc1c(-c2nc3ccccc3s2)[n+]([O-])c2ccccc2[n+]1[O-] | – | 72.5 µM | – | – | – | 78 µM | – | > 100 µM | – | 74.2 µM | – | 40.4 µM | – | – | – | > 100 µM | – | 60.6 µM | – | –
6 | Cc1ccc(-c2nc(C(Cl)Cl)nc3cc(C)nn23)cc1 | 2.1 µM | 6.71 µM | 1.24 µM | 4.61 µM | 0.783 µM | 3.6 µM | > 100 µM | > 100 µM | – | – | 3.5 µM | > 100 µM | – | – | 4.82 µM | > 100 µM | 1.47 µM | 3.42 µM | > 100 µM | 5.88 µM
7 | CC1(C)CC(O)CC(C)(C)N1.CC1(C)CC(O)CC(C)(C)N1.CC1(C)CC(O)CC(C)(C)N1.CC1(C)CC(O)CC(C)(C)N1.Cl.[Ti] | > 100 µM | > 100 µM | > 100 µM | > 100 µM | > 100 µM | > 100 µM | > 100 µM | > 100 µM | > 100 µM | > 100 µM | > 100 µM | > 100 µM | – | – | > 100 µM | > 100 µM | > 100 µM | > 100 µM | > 100 µM | > 100 µM
8 | O=C(Nc1cccc(-n2cc(-c3ccncc3)c(-c3ccc(O)c(Cl)c3)n2)c1)Nc1ccc(Cl)c(Cl)c1 | 2.29 µM | 7.27 µM | 1.63 µM | 8.52 µM | 2.02 µM | 7.81 µM | 1.58 µM | 7.12 µM | 1.59 µM | 3.79 µM | 1.56 µM | 2.99 µM | 1.4 µM | 7.1 µM | 1.39 µM | 5.73 µM | – | – | > 100 µM | 2.72 µM
9 | Nc1ncnc2sc(Nc3ccccc3)nc12 | – | > 100 µM | – | > 100 µM | – | > 100 µM | – | > 100 µM | – | > 100 µM | – | – | – | – | – | – | – | > 100 µM | > 100 µM | –
10 | COc1cc2c3c(n(CCCN4CCSCC4)c(=O)c2cc1OC)-c1cc2c(cc1C3=O)OCO2 | 19 µM | > 100 µM | > 100 µM | > 100 µM | 58.6 µM | > 100 µM | 25.2 µM | 75.5 µM | > 100 µM | > 100 µM | > 100 µM | > 100 µM | 71.7 µM | > 100 µM | – | – | 35 µM | 97.1 µM | – | –
11 | COc1ccc(C(=O)/C=C/c2ccc(OCc3ccccc3)c(OC)c2)cc1OC | – | – | 2.78 µM | > 100 µM | 4.31 µM | > 100 µM | 5.36 µM | > 100 µM | 5.91 µM | > 100 µM | 3.61 µM | 17.2 µM | 2.8 µM | 71.4 µM | 3.04 µM | 71.2 µM | 2.85 µM | 8.77 µM | > 100 µM | 3.97 µM
12 | NC(=O)C(=O)Cc1nc2ccccc2s1 | – | > 100 µM | – | > 100 µM | – | > 100 µM | – | > 100 µM | – | > 100 µM | – | – | – | – | – | > 100 µM | – | > 100 µM | > 100 µM | –
13 | CCOc1ccc(/C=C2/C(=O)N=C(N)N=C2N)cc1OCC | – | > 100 µM | – | > 100 µM | – | > 100 µM | – | > 100 µM | – | > 100 µM | – | > 100 µM | – | – | – | > 100 µM | – | > 100 µM | > 100 µM | –
14 | CC(=O)c1c(O)c2c([nH]c1=O)CCCC2 | – | 39.7 µM | – | > 100 µM | – | > 100 µM | – | > 100 µM | – | > 100 µM | – | – | – | – | – | > 100 µM | – | > 100 µM | 45.1 µM | –
15 | CCN(CC)CCCNc1c2ccc(Cl)cc2nc2ccc(OC)cc12 | – | – | 0.0345 µM | 2.51 µM | – | – | 0.0449 µM | 2.15 µM | – | – | 1.64 µM | 3.02 µM | 2.05 µM | 5.54 µM | 0.0473 µM | 3.67 µM | – | – | 3.69 µM | 0.0575 µM
16 | O=C1c2ccccc2-c2c1c1ccc([N+](=O)[O-])cc1c(=O)n2CCCCl | 2.25 µM | > 100 µM | > 100 µM | > 100 µM | 4.29 µM | > 100 µM | > 100 µM | > 100 µM | 47 µM | > 100 µM | 0.874 µM | 5.89 µM | – | – | – | – | 4.91 µM | 77 µM | > 100 µM | 27.1 µM
17 | O=c1[nH]c(=O)n(C2CC(O)C(O)C(CO)O2)cc1F (centres undefined) | – | > 100 µM | – | > 100 µM | – | > 100 µM | – | > 100 µM | – | > 100 µM | – | – | – | – | – | > 100 µM | – | > 100 µM | > 100 µM | –
